Assay results as given in PubChem BioAssay (NCI).
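Test compounds were applied to cells in 96-well plates for 48 hours at 5 doses. GI50: concentration for 50% inhibition of growth. Definition used: TGI = concentration required for complete inhibition of growth.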

Assays:
Test in all cases: DTP human tumour cell line panel, 48 h
[1] = system: HCT-15 colon
[2] = system: LOX IMVI melanoma
[3] = system: NCI-H226 lung
[4] = system: OVCAR-3 ovarian
[5] = system: OVCAR-5 ovarian
[6] = system: PC-3 prostate
[7] = system: SN12C renal
[8] = system: SNB-19 CNS
[9] = system: SNB-75 CNS
[10] = system: SF-539 CNS

Structure (SMILES)	GI50 [1] [µM]	TGI [1] [µM]	GI50 [2] [µM]	TGI [2] [µM]	GI50 [3] [µM]	TGI [3] [µM]	GI50 [4] [µM]	TGI [4] [µM]	GI50 [5] [µM]	TGI [5] [µM]	GI50 [6] [µM]	TGI [6] [µM]	GI50 [7] [µM]	TGI [7] [µM]	GI50 [8] [µM]	TGI [8] [µM]	GI50 [9] [µM]	TGI [9] [µM]	TGI [10] [µM]	GI50 [10] [µM]
CCNCCNc1cc(-c2ccc(C(F)(F)F)cc2)c(C#N)c2nc3ccccc3n12	0.612	1.9	0.185	0.382	1.7	3.53	0.306	1	1.94	3.52	1.54	2.95	1.34	2.83	1.72	3.32	1.23	2.54		
COC(=O)C12CC3CC(CC(C(=O)O)(C3)C1)C2		> 100		> 100				> 100		> 100				> 100		> 100		> 100	> 100	
COC(=O)C(Cc1nc2ccccc2[nH]c1=O)C(NO)C(=O)Nc1c(Cl)cc([N+](=O)[O-])cc1Cl (stereo not given)		> 100						> 100						> 100		> 100			56.5	
COc1ccc(C(=O)c2cc(OC)c(OC)c(OC)c2)cc1/C=C/C(=O)c1ccc(F)cc1	2.14	6.96			3.57	18.1	4.83	15.5	2.67	11.5	3.3	13.7	2.62	8.18	2.26	5.96	3.18	20.7	4.3	1.98
CCOC(=O)C1SC(=Nc2ccc(C)c(C)c2)N=C1C (stereo not given)		> 100		> 100		> 100		> 100		> 100				> 100		> 100		> 100	> 100	
O=C(O)CNS(=O)(=O)c1ccc(NC(=O)c2ccc([N+](=O)[O-])cc2)cc1		> 100		> 100		> 100		> 100		> 100				> 100		> 100		> 100	> 100	
CCCN(CCC)C(=O)c1c([N+](=O)[O-])cc(C(F)(F)F)cc1[N+](=O)[O-]		> 100		> 100		65.3		34.8		> 100				> 100		> 100		> 100	> 100	
CC1=[N+]([O-])c2ccccc2C(=O)C1=O		> 100		> 100		> 100		> 100		> 100				> 100		> 100		> 100	> 100	
S=c1ssc(N2CCOCC2)c1Cl	23.6	> 100	17.7	37.8	> 100	> 100	39.3	> 100	> 100	> 100	40.2	> 100	72.7	> 100	> 100	> 100			76.3	31.4
O=C(N/N=C/c1cc(Br)ccc1O)N/N=C/c1cc(Br)ccc1O				> 100		9.64				> 100				> 100		> 100			> 100	
COC(=O)C(CC(=O)Nc1ccc(C)cc1)C(=O)C(=O)Nc1c(C(C)C)cccc1C(C)C (stereo not given)		> 100		> 100		> 100				> 100				> 100		> 100		> 100	> 100	
COc1cc(/C=C/c2ccc(OC)c(O)c2)cc(OC)c1		24.2		34.2		16.7		4.88		89.1				30.3		24.1			8.47	
c1cnn(CN(Cn2cccn2)Cn2cccn2)c1		> 100		> 100				> 100						> 100		> 100		> 100	> 100	
Cc1ccc(N=C/C=C(\Nc2ccc(C)cc2)c2ccc(Cl)cc2)cc1	5.77	> 100	5.58	> 100			8.06	77.9	24.4	94.9	26.8	> 100	11.7	33.3	17.3	70.6			26.6	6.1
Cn1cc(C2(C)CC(C)(C)c3c2n(C)c2ccccc32)c2ccccc21 (stereo not given)		> 100		> 100		> 100		> 100						> 100		> 100		> 100	> 100	
COc1cc2c3c(n(CCCN)c(=O)c2cc1OC)-c1ccc(C#N)cc1C3=O	15.4	30.6	13.6	30	17.3	38	19.1	39.9	18	33.2	15	36.5	16.8	32.8	11.6	30.4	0.562	16.1		
O=C1C2C3C=C4c5ccccc5N(c5ccccc5)C4(C2C(=O)N1c1ccc([N+](=O)[O-])cc1)[C@H]1C(=O)N(c2ccc([N+](=O)[O-])cc2)C(=O)[C@@H]31 (stereo not given in full)		> 100		> 100		> 100		> 100		> 100				> 100		> 100		> 100	> 100	
CNC(=S)/N=C(\N)N(C)C		> 100		> 100		> 100		> 100						> 100		> 100		> 100	> 100	
Clc1cc(Cl)c2ns[s+]c2c1Cl				> 100		> 100		> 100		> 100				> 100		> 100		> 100	> 100	
O=C(c1cccc2ccccc12)N1CCC(C2CCN(C(=O)c3cccc4ccccc34)CC2)CC1		> 100		> 100		> 100		> 100		> 100				> 100				65.7	> 100	
COc1ccc(CN2CC(C)(C)C2=O)c(OC)c1		> 100		> 100		> 100		> 100						> 100		> 100		> 100	> 100	
